Data on 46 compounds can be found in patent publication US7638535B2, “4-(aminomethyl)-piperidine benzamides as 5HT4-antagonists” (Janssen Pharmaceutica N.V., priority 2003, dated 2009).

Data set [1] can be described thus: Metabolic stability: % metabolism after 60 minutes incubation with active liver microsomes. Type of data set: in vitro ADME. Particulars: compound 5 μM, microsomes 1 mg/ml, NADPH-generating system, 60 minutes at 37 degrees Celsius; for % metabolised compound (comparative structures of WO-00/37461): compound numbers of WO-00/37461. The procedure:
Sub-cellular tissue preparations were made according to Gorrod et al. (Xenobiotica 5:453-462, 1975) by centrifugal separation after mechanical homogenization of tissue. Liver tissue was rinsed in ice-cold 0.1 M Tris-HCl (pH 7.4) buffer to wash excess blood. Tissue was then blotted dry, weighed and chopped coarsely using surgical scissors. The tissue pieces were homogenized in 3 volumes of ice-cold 0.1 M phosphate buffer (pH 7.4).
Tissue homogenates were centrifuged at 9000×g for 20 minutes at 4° C. The resulting supernatant was stored at −80° C. and is designated ‘S9’.
The S9 fraction can be further centrifuged at 100.000×g for 60 minutes (4° C.). The resulting supernatant was carefully aspirated, aliquoted and designated ‘cytosol’. The pellet was re-suspended in 0.1 M phosphate buffer (pH 7.4) in a final volume of 1 ml per 0.5 g original tissue weight and designated ‘microsomes’.
All sub-cellular fractions were aliquoted, immediately frozen in liquid nitrogen and stored at −80° C. until use.
For the samples to be tested, the incubation mixture contained PBS (0.1M), compound (5 μM), microsomes (1 mg/ml) and a NADPH-generating system (0.8 mM glucose-6-phosphate, 0.8 mM magnesium chloride and 0.8 Units of glucose-6-phosphate dehydrogenase). Control samples contained the same material but the microsomes were replaced by heat inactivated (10 minutes at 95 degrees Celsius) microsomes. Recovery of the compounds in the control samples was always 100%.
The mixtures were preincubated for 5 minutes at 37 degrees Celsius. The reaction was started at time point zero (t=0) by addition of 0.8 mM NADP and the samples were incubated for 60 minutes (t=60). The reaction was terminated by the addition of 2 volumes of DMSO. Then the samples were centrifuged for 10 minutes at 900×g and the supernatants were stored at room temperature for no longer as 24 hours before analysis. All incubations were performed in duplo. Analysis of the supernatants was performed with LC-MS analysis. Elution of the samples was performed on a Xterra MS C18 (50×4.6 mm, 5 μm, Waters, US). An Alliance 2790 (Supplier: Waters, US) HPLC system was used. Elution was with buffer A (25 mM ammoniumacetate (pH 5.2) in H2O/acetonitrile (95/5)), solvent B being acetonitrile and solvent C methanol at a flow rate of 2.4 ml/min. The gradient employed was increasing the organic phase concentration from 0% over 50% B and 50% C in 5 min up to 100% B in 1 minute in a linear fashion and organic phase concentration was kept stationary for an additional 1.5 minutes. Total injection volume of the samples was 25 μl.
A Quatro triple quadrupole mass spectrometer fitted with and ESP source was used as detector. The source and the desolvation temperature were set at 120 and 350° C. respectively and nitrogen was used as nebuliser and drying gas. Data were acquired in positive scan mode (single ion reaction). Cone voltage was set at 10 V and the dwell time was 1 second.
Metabolic stability was expressed as % metabolism of the compound after 60 minutes (equation given as example) of incubation in the presence of active microsomes (E(act))
A general note: Liver microsomes are a subcellular fraction often used to study metabolism.

The target in data set [2] is T1, h5-HT4b (Homo sapiens, UniProt Q13639).
T1 construct: expressed in transfected cells; host or cells: HEK 293 (clone 9), membrane preparation
As to the kind of experiment: 5HT4 antagonism: [3H]GR113808 binding to membranes of h5-HT4b-HEK 293 clone 9 cells. The settings on record: displacement of [3H]GR113808 0.1 nM, h5-HT4b-HEK 293 membranes, 30 min at 25° C.; read-out: pIC50 (5HT4 antagonistic data) (converted). The gist of the method:
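Membranes from h5-HT4b-HEK 293 clone 9 cells were incubated with [3H]GR113808 (0.1 nM as added) in 50 mM HEPES-NaOH pH 7.4 for 30 min at 25 °C. Non-specific binding was defined with a 5-HT4 agonist. Bound radioligand was separated by filtration over PEI-soaked GF/B filters.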
A general note: Loss of bound radioactivity is the signal in a displacement assay; it reports binding, not function.

T1 sequence (Q13639 whole entry): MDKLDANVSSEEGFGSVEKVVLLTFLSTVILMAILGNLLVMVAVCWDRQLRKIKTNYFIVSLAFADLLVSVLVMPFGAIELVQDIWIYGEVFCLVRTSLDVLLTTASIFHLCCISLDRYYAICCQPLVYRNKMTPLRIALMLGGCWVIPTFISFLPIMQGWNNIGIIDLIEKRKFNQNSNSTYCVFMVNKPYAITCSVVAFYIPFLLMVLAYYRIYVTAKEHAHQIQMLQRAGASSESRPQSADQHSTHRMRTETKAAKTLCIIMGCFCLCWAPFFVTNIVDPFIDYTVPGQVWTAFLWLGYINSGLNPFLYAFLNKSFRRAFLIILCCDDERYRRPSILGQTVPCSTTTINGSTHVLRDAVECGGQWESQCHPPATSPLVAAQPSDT

As to `COCCCN1CC[C@@H](CNC(=O)c2cc(C)cc3c2OCCCO3)[C@H](O)C1` (single isomer, unassigned) [compound 162], the “% metabolised compound (compounds of present invention)” value in data set [1] stood at 9%. Besides, in data set [2], the IC50 was 3.09 nM.

On to `COCCCN1CC[C@@H](CNC(=O)c2cc(Cl)cc3c2OCCO3)[C@H](O)C1` [WO-00/37461 Co. No. 67, reference compound], for which, in data set [1], the “% metabolised compound (comparative structures of WO-00/37461)” value worked out at 30%.

As for `O=C(NC[C@@H]1CCN(CCCCO)C[C@H]1O)c1cc(Cl)cc2c1OCCO2` [WO-00/37461 Co. No. 68, reference compound], in data set [1], the “% metabolised compound (comparative structures of WO-00/37461)” value came to 10%.

As for `N#CCCCN1CC[C@@H](CNC(=O)c2cc(Cl)cc3c2OCCO3)[C@H](O)C1` [WO-00/37461 Co. No. 74, reference compound], the “% metabolised compound (comparative structures of WO-00/37461)” value in data set [1] turned out to be 50.5%.

For the compound `CCCCN1CC[C@@H](CNC(=O)c2cc(Cl)cc3c2OCCCO3)[C@H](O)C1` [WO-00/37461 Co. No. 119, reference compound], in data set [1], the “% metabolised compound (comparative structures of WO-00/37461)” value was 68%.

Regarding `COCCCN1CC[C@@H](CNC(=O)c2cc(Cl)cc3c2OCCCO3)[C@H](O)C1` [WO-00/37461 Co. No. 120, reference compound], the “% metabolised compound (comparative structures of WO-00/37461)” value in data set [1] is listed as 25%.

Take `CC(=O)CCCN1CC[C@@H](CNC(=O)c2cc(Cl)cc3c2OCCCO3)[C@H](O)C1` [WO-00/37461 Co. No. 121, reference compound]: the “% metabolised compound (comparative structures of WO-00/37461)” value in data set [1] is on record as 30%.

As to `O=C(NC[C@@H]1CCN(CC2CCCO2)C[C@H]1O)c1cc(Cl)cc2c1OCCCO2` (stereo partly shown) [WO-00/37461 Co. No. 122, reference compound], in data set [1], the “% metabolised compound (comparative structures of WO-00/37461)” value worked out at 79%.

As for `CC1(CCCN2CC[C@@H](CNC(=O)c3cc(Cl)cc4c3OCCCO4)[C@H](O)C2)OCCO1` [WO-00/37461 Co. No. 124, reference compound], the “% metabolised compound (comparative structures of WO-00/37461)” value in data set [1] is reported as 49.5%.

For the compound `O=C(NC[C@@H]1CCN(CCOCCO)C[C@H]1O)c1cc(Cl)cc2c1OCCCO2` [WO-00/37461 Co. No. 128, reference compound], the “% metabolised compound (comparative structures of WO-00/37461)” value in data set [1] was found to be 26%.

Regarding `O=C(NC[C@@H]1CCN(CCC2OCCO2)C[C@H]1O)c1cc(Cl)cc2c1OCCCO2` [WO-00/37461 Co. No. 143, reference compound], the “% metabolised compound (comparative structures of WO-00/37461)” value in data set [1] was 63%.

With `O=C(NC[C@@H]1CCN(CCCO)C[C@H]1O)c1cc(Cl)cc2c1OCCCO2` [WO-00/37461 Co. No. 144, reference compound], the “% metabolised compound (comparative structures of WO-00/37461)” value in data set [1] is given as 11%.

On to `O=C(NC[C@@H]1CCN(CCCCO)C[C@H]1O)c1cc(Cl)cc2c1OCCCO2` [WO-00/37461 Co. No. 160, reference compound], for which, in data set [1], the “% metabolised compound (comparative structures of WO-00/37461)” value was determined as 23%.

In the case of `COCCCN1CC[C@@H](CNC(=O)c2cc(OC)cc3c2OCCCO3)[C@H](O)C1` [compound 87], in data set [1], the “% metabolised compound (compounds of present invention)” value is 4%. Moreover, the IC50 in data set [2] was 12.9 nM.

Consider `COCc1cc2c(c(C(=O)NC[C@@H]3CCN(CC4CCCO4)C[C@H]3O)c1)OCCCO2` (stereo partly shown) [compound 125], for which, in data set [1], the “% metabolised compound (compounds of present invention)” value was 6%. Further, the IC50 in data set [2] is 16.2 nM.

For the compound `Cc1cc2c(c(C(=O)NC[C@@H]3CCN(CCC(N)=O)C[C@H]3O)c1)OCCCO2` [compound 214], the IC50 in data set [2] is 2.34 nM.

As to `CO[C@@H]1CN(CCCC#N)CC[C@H]1CNC(=O)c1cc(C)cc2c1OCCCO2` [compound 215], the IC50 in data set [2] is 5.01 nM.

Consider `CNCCCCN1CC[C@@H](CNC(=O)c2cc(CC#N)cc3c2OCCCO3)[C@H](O)C1` [compound 216], for which the IC50 in data set [2] is 44.7 nM.

For `Cc1cc2c(c(C(=O)NC[C@@H]3CCN(CCCCC(N)=O)C[C@H]3O)c1)OCCCO2` [compound 217], in data set [2], the IC50 was 1.48 nM.

On to `Cc1cc2c(c(C(=O)NC[C@@H]3CCN(CC4CC4)C[C@H]3O)c1)OCCCO2` [compound 218], for which, in data set [2], the IC50 is 0.776 nM.

As to `CC(C)OCCCN1CC[C@H](CNC(=O)c2cc(C#N)cc3c2OCCCO3)[C@@H](O)C1` [compound 219], in data set [2], the IC50 is 1.86 nM.

On to `CC1(CCCN2CC[C@H](CNC(=O)c3cc(C#N)cc4c3OCCCO4)[C@@H](O)C2)OCCO1` [compound 220], for which, in data set [2], the IC50 was 2.51 nM.

For the compound `CO[C@@H]1CN(CCCNS(C)(=O)=O)CC[C@H]1CNC(=O)c1cc(C)cc2c1OCCCO2` [compound 221], the IC50 in data set [2] was 3.09 nM.

As to `CCCCN1CC[C@@H](CNC(=O)c2cc(C)cc3c2OCCCO3)[C@H](OC)C1` [compound 222], the IC50 in data set [2] is 1.32 nM.

Turning to `CC(=O)CCCN1CC[C@@H](CNC(=O)c2cc(C#N)cc3c2OCCCO3)[C@H](O)C1` [compound 223], in data set [2], the IC50 is 3.72 nM.

Regarding `Cc1cc2c(c(C(=O)NC[C@@H]3CCN(CCCC(=O)N4CCCC4)C[C@H]3O)c1)OCCCO2` [compound 224], the IC50 in data set [2] is 1.78 nM.

In the case of `Cc1cc2c(c(C(=O)NC[C@@H]3CCN(CCCCNc4ncccn4)C[C@H]3O)c1)OCCCO2` [compound 230], in data set [2], the IC50 is 0.501 nM.

In the case of `Cc1cc2c(c(C(=O)NC[C@@H]3CCN(CCCCNc4nccnc4C)C[C@H]3O)c1)OCCCO2` [compound 231], in data set [2], the IC50 is 0.776 nM.

For `Cc1cc2c(c(C(=O)NC[C@@H]3CCN(CCCc4ccncc4)C[C@H]3O)c1)OCCCO2` [compound 232], the IC50 in data set [2] is 0.398 nM.

On to `Cc1cc2c(c(C(=O)NC[C@@H]3CCN(CCCc4ccc(O)cc4)C[C@H]3O)c1)OCCCO2` [compound 233], for which the IC50 in data set [2] is 0.355 nM.

With `COCCCCN1CC[C@@H](CNC(=O)c2cc(C)cc3c2OCCCO3)[C@H](O)C1` [compound 234], the IC50 in data set [2] is 0.49 nM.

As to `COCCCN1CC[C@@H](CNC(=O)c2cc(C#N)cc3c2OCCCO3)[C@H](OC)C1` [compound 235], the IC50 in data set [2] was 37.2 nM.

For `CO[C@@H]1CN(CCCNS(C)(=O)=O)CC[C@H]1CNC(=O)c1cc(C#N)cc2c1OCCCO2` [compound 236], in data set [2], the IC50 was 47.9 nM.

In the case of `Cc1cc2c(c(C(=O)NC[C@@H]3CCN(CCCS(C)(=O)=O)C[C@H]3O)c1)OCCO2` [compound 237], the IC50 in data set [2] is 1.45 nM.

As to `COCCCCN1CCC(O)(CNC(=O)c2cc(C)cc3c2OCCCO3)CC1` [compound 239], the IC50 in data set [2] is 19.1 nM.

In the case of `Cc1cc2c(c(C(=O)NCC3(O)CCN(CCCC#N)CC3)c1)OCCCO2` [compound 240], the IC50 in data set [2] is 45.7 nM.

With `Cc1cc2c(c(C(=O)NC[C@H]3CCN(CCCC#N)C[C@H]3O)c1)OCCCO2` [compound 241], the IC50 in data set [2] is 19.5 nM.

`CCCCN1CC[C@H](CNC(=O)c2cc(C)cc3c2OCCCO3)[C@H](O)C1` [compound 242]: the IC50 in data set [2] is 0.794 nM.

In the case of `COCCCCN1CC[C@H](CNC(=O)c2cc(C)cc3c2OCCCO3)[C@H](O)C1` [compound 243], the IC50 in data set [2] was 9.33 nM.

Regarding `CCCCN1CCC(O)(CNC(=O)c2cc(C)cc3c2OCCCO3)CC1` [compound 245], the IC50 in data set [2] was 2.14 nM.

As to `COCCCCN1CC[C@@H](CNC(=O)c2cc(C)cc3c2OCCO3)[C@H](O)C1` [compound 248], the IC50 in data set [2] is 0.224 nM.

Turning to `Cc1cc2c(c(C(=O)NC[C@H]3CCN(CCCC(N)=O)C[C@H]3O)c1)OCCCO2` [compound 249], the IC50 in data set [2] was 37.2 nM.

As to `Cc1cc2c(c(C(=O)NC[C@@H]3CCN(CCCOC(=O)N4CCCC4)C[C@H]3O)c1)OCCCO2` [compound 250], the IC50 in data set [2] is 0.759 nM.

Consider `COCCCN1CC[C@H](CNC(=O)c2cc(C)cc3c2OCCCO3)[C@@H](O)C1` [compound 251], for which, in data set [2], the IC50 is 30.9 nM.

With `N#Cc1cc2c(c(C(=O)NC[C@@H]3CCN(CCCC(N)=O)C[C@H]3O)c1)OCCCO2` [compound 252], the IC50 in data set [2] is 4.27 nM.

Turning to `Cc1cc2c(c(C(=O)NCC3(O)CCN(CCCC(N)=O)CC3)c1)OCCCO2` [compound 253], the IC50 in data set [2] was 31.6 nM.
